Legend:
Assay in all cases: MIC, broth microdilution (NCCLS M7-A6)
Format in all cases: cell-based
[1] = test system: Enterobacter aerogenes Zayakosky 5 [DSM 18992]; conditions: E. aerogenes Zayakosky 5; combinations of equal weights; IsoSensiTest Broth + 16 μg/mL 2,2'-bipyridyl
Experimental: (§1) Antimicrobial activity of the compounds and of their combinations is determined against a selection of organisms according to standard procedures described by the National Committee for Clinical Laboratory Standards (NCCLS document M7-A6). […] In all cases the final concentration of DMSO incubated with the bacteria is less than or equal to 1%. […] Plates are incubated overnight at an appropriate temperature (30° C. or 37° C.) and optical densities assessed by eye. The MIC value is defined as the lowest compound concentration completely inhibiting visible growth of the test organism. Synergism tests are performed under the same conditions as described above but with two antimicrobial agents dispensed in checkerboard format [Isenberg H D (1992) Synergism testing: Broth microdilution checkerboard and broth macrodilution methods. In: Clinical Microbiology Procedures Manual vol. 1. Washington, D.C.: American Society for Microbiology. […] The strains used are: Pseudomonas aeruginosa 6067 (Accession number at the DSMZDeutsche Sammlung von Mikroorganismen and Zellkulturen GmbH, Inhoffenstr. 7 B, D-38124 Braunschweig: […] (DSM 18988), Achromobacter (formerly Alcaligenes) xylosoxidans QK3/96 (DSM 18991), Enterobacter aerogenes Zayakosky 5 (DSM 18992).

[2] = test system: Pseudomonas aeruginosa 6067 [DSM 18987]; conditions: P. aeruginosa 6067; combinations of equal weights; IsoSensiTest Broth + 16 μg/mL 2,2'-bipyridyl
Experimental: as §1

[3] = test system: Pseudomonas aeruginosa (67/2B)2R.A. [DSM 18988]; conditions: P. aeruginosa (67/2B)2R.A.; combinations of equal weights; IsoSensiTest Broth + 16 μg/mL 2,2'-bipyridyl
Experimental: as §1

[4] = test system: Achromobacter (formerly Alcaligenes) xylosoxidans QK3/96 [DSM 18991]; conditions: A. xylosoxidans QK3/96; combinations of equal weights; IsoSensiTest Broth + 16 μg/mL 2,2'-bipyridyl
Experimental: as §1

SMILES	Minimum Inhibitory Concentration [1]	Minimum Inhibitory Concentration [2]	Minimum Inhibitory Concentration [3]	Minimum Inhibitory Concentration [4]
C[C@H]1[C@H](NC(=O)/C(=N\OC(C)(C)C(=O)O)c2csc(N)n2)C(=O)N1S(=O)(=O)O [Aztreonam, (Z)-2-[[[(2-amino-4-thiazolyl)[[(2S,3S)-2-methyl-4-oxo-1-sulfo-3-azetidinyl]-carbamoyl]methylene]amino]oxy]-2-methylpropionic acid]	64 mg/L	16 mg/L	4 mg/L	>64 mg/L
C[C@@H](O)[C@H]1C(=O)N2C(C(=O)O)=C(SCCN=CN)C[C@H]12 [Imipenem]	32 mg/L	4 mg/L	16 mg/L	4 mg/L
C[C@@H](O)[C@H]1C(=O)N2C(C(=O)O)=C(S[C@@H]3CN[C@H](CNS(N)(=O)=O)C3)[C@H](C)[C@H]12 [Doripenem]	8 mg/L	16 mg/L	4 mg/L	16 mg/L
CC1(C)[C@H](NC(=O)/C(=N\OCc2cc(=O)c(O)cn2O)c2csc(N)n2)C(=O)N1OS(=O)(=O)O [Compound of formula I, (3S)-3-{(2Z)-2-(2-amino(1,3-thiazol-4-yl))-3-[(1,5-dihydroxy-4-oxo(2-hydropyridyl))methoxy]-3-azaprop-2-enoylamino}-4,4-dimethyl-2-oxoazetidinyl hydroxysulfonate]	16 mg/L	16 mg/L	32 mg/L	16 mg/L
C[C@@H](O)[C@H]1C(=O)N2C(C(=O)O)=C(S[C@@H]3CN[C@H](C(=O)N(C)C)C3)[C@H](C)[C@H]12 [Meropenem]	16 mg/L	16 mg/L	4 mg/L	16 mg/L
C[C@H]1[C@H](NC(=O)/C(=N\OCc2cc(=O)c(O)cn2O)c2cccs2)C(=O)N1S(=O)(=O)O [Compound A, (3S)-trans-3-[(E)-2-(2-thienyl)-2-{(1,5-dihydroxy-4-pyridon-2-ylmethoxy)imino}-acetamido]-4-methyl-2-oxazetidine-1-sulfonic acid]	>64 mg/L	>64 mg/L	>64 mg/L	>64 mg/L
C[C@H]1[C@H](NC(=O)/C(=N/OCc2cc(=O)c(O)cn2O)c2cccs2)C(=O)N1S(=O)(=O)O [Compound B]	>64 mg/L	>64 mg/L	>64 mg/L	>64 mg/L
C[C@@H](O)[C@H]1C(=O)N2C(C(=O)O)=C(S[C@@H]3CN[C@H](C(=O)Nc4cccc(C(=O)O)c4)C3)[C@H](C)[C@H]12 [Ertapenem]	>32 mg/L	>32 mg/L	>32 mg/L	>32 mg/L

Reference: patent US8809315B2, “Combination medicaments for treating bacterial infections” (Basilea Pharmaceutica AG, priority 2007, dated 2014)
